Test results reported in patent publication US5932587A, “Heterocyclic-fused pyridines” (Bayer Aktiengesellschaft, priority 1996, dated 1999).

Experiments:
[1] = biological target: T1, cholesterol ester transfer protein (CETP) (Homo sapiens, UniProt P11597); assay: CETP inhibition test (transfer of 3H-cholesterol ester from human HDL to biotinylated LDL, SPA); type: biochemical; conditions: 37° C., 18 h
T1 construct: CETP is obtained from human plasma in partially purified form; from tissue; host or cells: human plasma (partially purified in house by differential centrifugation and column chromatography)
T1 sequence (P11597 18-493): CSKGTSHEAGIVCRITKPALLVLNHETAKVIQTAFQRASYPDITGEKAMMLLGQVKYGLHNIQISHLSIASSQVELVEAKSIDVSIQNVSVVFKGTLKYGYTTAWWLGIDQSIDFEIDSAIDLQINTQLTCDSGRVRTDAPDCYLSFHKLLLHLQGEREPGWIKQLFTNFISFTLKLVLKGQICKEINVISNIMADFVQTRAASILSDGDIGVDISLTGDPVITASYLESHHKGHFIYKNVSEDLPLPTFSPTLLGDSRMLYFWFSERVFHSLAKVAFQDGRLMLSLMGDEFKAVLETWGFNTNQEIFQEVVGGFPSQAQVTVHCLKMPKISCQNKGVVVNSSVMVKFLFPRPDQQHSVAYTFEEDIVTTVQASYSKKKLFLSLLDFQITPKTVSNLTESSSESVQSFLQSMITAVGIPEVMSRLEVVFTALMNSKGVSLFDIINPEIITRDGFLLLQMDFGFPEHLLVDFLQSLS
Procedure: CETP is obtained from human plasma in partially purified form by differential centrifugation and column chromatography and used for the test. To this end, human plasma is adjusted to a density of 1.21 g per ml using NaBr and centrifuged at 4° C. for 18 h at 50,000 rpm. The bottom fraction (d>1.21 g/ml) is applied to a Sephadex®phenyl-sepharose 4B (Pharmacia) column, washed with 0.15 M NaCl/0.001 M tris HCl pH 7.4 and then eluted with distilled water. The CETP-active fractions are pooled, dialysed against 50 mM Na acetate pH 4.5 and applied to a CM-Sepharose® (Pharmacia) column. The column is then eluted using a linear gradient (0-1 M NaCl). The pooled CETP fractions are dialysed against 10 mM tris HCl pH 7.4 and then further purified by chromatography on a Mono Q® column (Pharmacia).
Obtainment of radiolabelled HDL
50 ml of fresh human EDTA plasma are adjusted to a density of 1.12 using NaBr and centrifuged at 50,000 rpm for 18 h at 4° C. in a Ty 65 rotor. The upper phase is used to obtain cold LDL. The lower phase is dialysed against 3×4 l of PDB buffer (10 mM tris/HCl pH 7.4, […], 1 mM EDTA, 0.02% NaN3). 20 μl of ^3 H-cholesterol (Dupont NET-725; 1 μC/μl dissolved in ethanol) are then added per 10 ml of retentate volume and the mixture is incubated under N2 at 37° C. for 72 h. […]
To test the CETP activity, the transfer of ^3 H-cholesterol ester from human HD lipoproteins to biotinylated LD lipoproteins is measured. The reaction is ended by addition of streptavidin-SPA®beads (Amersham) and the transferred radioactivity is determined directly in a liquid scintillation counter.
In the test mixture, 10 μl of HDL-^3 H-cholesterol ester (~50,000 cpm) are incubated at 37° C. for 18 h with 10 μl of biotin-LDL (Amersham) in 50 mM Hepes/0.15 M NaCl/0.1% bovine serum albumin/0.05% NaN3 pH 7.4 with 10 μl of CETP (1 mg/ml) and 3 μl of solution of the substance to be tested (dissolved in 10% DMSO/1% RSA). 200 μl of the SPA-streptavidin bead solution (TRKQ 7005) are then added, the mixture is incubated further for 1 h with shaking and then measured in the scintillation counter. […]

[2] = In vivo activity: oral action on lipoproteins and triglycerides in Syrian golden hamsters (HDL rise); conditions: dose 2 × 3 mg/kg, hamster, up to 24 hours after administration
Procedure: In vivo activity of the compounds according to the invention
In experiments to determine the oral action on lipoproteins and triglycerides, test substance dissolved in DMSO and 0.5% Tylose suspended by means of a stomach tube are administered orally to Syrian golden hamsters from in-house breeding. To determine the CETP activity, blood (about 250 μl) is taken by retro-orbital puncture before the start of the experiment. The test substances are then administered orally by means of a stomach tube. The control animals receive identical volumes of solvent without test substance. […]
Clotting is ended by incubation at 4° C. overnight, then centrifugation at 6000×g is carried out for 10 minutes. In the serum thus obtained, the content of cholesterol and triglycerides is determined with the aid of modified commercially available enzyme tests (cholesterol enzymatic 14366 Merck, triglycerides 14364 Merck). […]
100 μl of serum dilution are mixed with 100 μl of test substance in 96-hole plates and incubated at room temperature for 10 minutes. The optical density is then determined at a wavelength of 492 nm using an automatic plate-reading apparatus. The triglyceride or cholesterol concentration contained in the samples is determined with the aid of a standard curve measured in parallel. […]

[3] = tested on: CETP; assay: Ex vivo activity: CETP activity in serum of treated Syrian golden hamsters; conditions: ex vivo CETP activity in hamster serum; for ED50 (ex vivo activity): up to 24 hours after administration
Procedure: Ex vivo activity of the compounds according to the invention
Syrian golden hamsters from in-house breeding are anaesthetized after fasting for 24 hours (0.8 mg/kg of atropine, 0.8 mg/kg of Ketavet® s.c., 30' later 50 mg/kg of Nembutal i.p.). The jugular vein is then exposed and cannulated. The test substance is dissolved in a suitable solvent (as a rule Adalat placebo solution: 60 g of glycerol, 100 ml of H2 O, PEG-400 to 1000 ml) and administered to the animals via a PE catheter inserted in the jugular vein. The control animals receive the same volume of solvent without test substance. The vein is then tied off and the wound is closed.
The administration of the test substances can also be carried out p.o., by orally administering the substances dissolved in DMSO and suspended in 0.5% Tylose by means of a stomach tube. The control animals receive identical volumes of solvent without test substance.
After various times--up to 24 hours after administration--blood (about 250 μl) is taken from the animals by puncture of the retro-orbital venous plexus. Clotting is ended by incubation at 4° C. overnight, then centrifugation is carried out at 6000×g for 10 minutes. In the serum thus obtained, CETP activity is determined by the modified CETP test. As for the CETP test described above, the transfer of ^3 H-cholesterol ester from HD lipoproteins to biotinylated LD lipoproteins is measured.
The reaction is ended by addition of Streptavidin-SPA®beads (Amersham) and the transferred radioactivity is determined directly in the liquid scintillation counter.
The test mixture is carried out as described under "CETP test". For the testing of the serum, only 10 μl of CETP are replaced by 10 μl of the corresponding serum samples. As controls, corresponding incubations with sera of untreated animals are used.
The activity transferred in the control mixtures with control sera is rated as 100% transfer. The substance concentration at which this transfer is reduced to a half is indicated as the ED50 value.

[4] = In vivo activity in transgenic hCETP mice (change in HDL, LDL, triglycerides); conditions: 80 ppm in the feed, one week
Procedure: In vivo activity in transgenic hCETP mice
Transgenic mice from in-house breeding (Dinchuck, Hart, Gonzalez Karmann Schmidt, Wirak; BBA (1995), 1295, 301) were administered the substances to be tested in the feed. Before the start of the experiment, blood was taken retro-orbitally from the mice in order to determine cholesterol and triglycerides in the serum. The serum was obtained as described above for hamsters by incubation at 4° C. overnight and subsequent centrifugation at 6000×g. After one week, blood was again taken from the mice in order to determine lipoproteins and triglycerides. The change in the parameters measured is expressed as a percentage change compared with the starting value.

| IC50 [1] | SMILES | % HDL rise [2] | ED50 (ex vivo activity) [3] | % Inhibition at 10 mg/kg [3] | HDL (percentage change compared with the starting value) [4] | LDL (percentage change compared with the starting value) [4] | Triglycerides (percentage change compared with the starting value) [4] |
| --- | --- | --- | --- | --- | --- | --- | --- |
| 200 nM | OC1CSCc2nc(C3CCCC3)c(C(F)c3ccc(C(F)(F)F)cc3)c(-c3ccc(F)cc3)c21 (centres unmarked) [Example 12] | 12.37% | < 10 mg/kg | 49.5% |  |  |  |
| 850 nM | OC1CCN(Cc2ccccc2)c2nc(C3CCCC3)c(Cc3ccc(C(F)(F)F)cc3)c(-c3ccc(F)cc3)c21 (centres unmarked) [Example 16] |  |  |  |  |  |  |

Second part, the molecule before the results:

| SMILES | IC50 [1] | % HDL rise [2] | ED50 (ex vivo activity) [3] | % Inhibition at 10 mg/kg [3] | HDL (percentage change compared with the starting value) [4] | LDL (percentage change compared with the starting value) [4] | Triglycerides (percentage change compared with the starting value) [4] |
| --- | --- | --- | --- | --- | --- | --- | --- |
| O=S1(=O)Cc2nc(C3CCCC3)c(C(O)c3ccc(C(F)(F)F)cc3)c(-c3ccc(F)cc3)c2C(O)C1 (centres unmarked) [Example 14] | 6000 nM |  |  |  |  |  |  |
| CC1CC(O)c2c(nc(C3CCCC3)c(Cc3ccc(C(F)(F)F)cc3)c2-c2ccc(F)cc2)N1Cc1ccccc1 (centres unmarked) [Example 20] |  | 9.21% | > 10 mg/kg | 50.4% | +14.5% | +6.7% | -24.5% |
| CC1CC(O)c2c(nc(C3CCCC3)c(C(O)c3ccc(C(F)(F)F)cc3)c2-c2ccc(F)cc2)N1Cc1ccccc1 (single isomer, unassigned) [Example 21] |  |  | > 10 mg/kg | 34.4% |  |  |  |
